Laboratory results taken from patent publication US20230114207A1, “THE COMBINATION OF CYCLIN DEPENDENT KINASE 7 INHIBITOR AND IMMUNOTHERAPY FOR TREATMENT OF CANCER” (Dana-Farber Cancer Institute, Inc., priority 2019, published 2023).

System: INSM1, ASCL1, NFIB and MYC in DMS79 and GLC16
Assay: RT-qPCR of super enhancer (SE)-associated genes
Assay type: cell-based, human
Details: 24 hr
Experimental: Cell pellets were collected and then subjected to total RNA extraction using RNeasy Plus Mini Kit (QIAGEN, Cat #74136) according to the manufacturer's instructions, or using TRIzol:Chloroform phase-separation by centrifugation followed by RNA precipitation using isopropanol. The extracted RNA was reversely transcribed into cDNA using the High-Capacity RNA-to-cDNA™ Kit (Thermo Fisher Scientific, Cat #4387406) according to the manufacturer's instructions. The obtained cDNA samples were diluted and used for RT-qPCR. PowerUp™ SYBR™ Green Master Mix (Thermo Fisher Scientific, Cat #A25742) or TaqMan Gene Expression Master Mix (Life Technologies, Cat #4369514). Gene specific primers with sequences listed in Table 3 were used for PCR amplification and detection on the StepOnePlus™ Real-Time PCR System (Thermo Fisher Scientific). RT-qPCR data were normalized to Actb (mouse cells) or GUSB (human cells) and presented as fold changes of gene expression in the test sample compared to the control.

CN(C)C/C=C/C(=O)Nc1ccc(C(=O)Nc2cccc(Nc3ncc(Cl)c(-c4c[nH]c5ccccc45)n3)c2)cc1 [THZ1, reference compound]
expression of super enhancer (SE)-associated genes including INSM1, ASCL1, NFIB and MYC: significant reduction
